Converted amounts (≈) assume the structure as drawn.
Key:
[1] = test system: microorganisms found in the oral cavity; test: Minimum inhibitory concentration (MIC) of anti-microbial agent; assay type: cell-based
Description: The germ kill rating (R) of each anti-microbial agent used in the oral composition is the ratio of the maximum acceptable taste concentration (ATC) of the anti-microbial agent and the minimum inhibitory concentration (MIC). The germ kill rating (R) is therefore a value representative of the suitability of a particular anti-microbial agent to provide a balance between acceptable taste and germ killing efficacy. A relatively high (R) value is indicative of an anti-microbial agent that can be used in a relatively large range of concentrations without adversely effecting taste while still obtaining the desired germ kill properties. […] However, thymol has a very low maximum acceptable taste concentration and therefore provides a germ kill rating (R) of 1.1 which is lower than the other four essential oils in Table 2 even though the other essential oils have a higher minimum inhibitory concentration.

[2] = test system: microorganisms found in the oral cavity; test: Germ kill rating (R), ratio of ATC and MIC; conditions: mint lozenge having a weight of 1.5 grams
Description: The germ kill rating (R) is therefore a quantitative indication of the range of concentrations of the anti-microbial agent (i.e. effective concentration range) that may be employed to achieve both the desirable germ kill properties and acceptable taste. By way of example, an anti-microbial agent having a germ kill rating of 10 has an effective concentration range twice as large as an anti-microbial agent having a germ kill rating of 5. The germ kill rating (R) of each anti-microbial agent used in the oral composition is the ratio of the maximum acceptable taste concentration (ATC) of the anti-microbial agent and the minimum inhibitory concentration (MIC). The germ kill rating (R) is therefore a value representative of the suitability of a particular anti-microbial agent to provide a balance between acceptable taste and germ killing efficacy. A relatively high (R) value is indicative of an anti-microbial agent that can be used in a relatively large range of concentrations without adversely effecting taste while still obtaining the desired germ kill properties. […] The maximum acceptable taste concentration (ATC) of an anti-microbial agent can be determined through known population sampling methods. […] The results are averaged and analyzed according to known statistical methods to yield the ATC value for a particular anti-microbial agent in a given solid carrier (e.g. mint lozenge). […]

[3] = Release of anti-microbial agent from chewing gum composition after 10 minutes of chewing; assay type: physicochemical; conditions: for Q factor (100/percentage released): chewing gum composition; for Release Rate (%) After 10 Minutes of Chewing: chewing gum compositions
Procedure: The germ kill potential (P) therefore is determined by the product of the concentration of at least one anti-microbial agent contained in the composition and the germ kill rating of each anti-microbial agent. The result is in turn multiplied by the mass of the composition and a factor Q as defined previously which is a measure of how easily the anti-microbial agent is released from the oral composition into the oral cavity. The Q factor may be readily determined for a given oral composition by comparing the amount of the anti-microbial agent present in the oral composition before placement in the oral cavity and how much remains after placement in the oral cavity for a fixed period of time. For other compositions such as chewing gum compositions, the release rate of the anti-microbial agent is much slower. Typically only a portion of the anti-microbial agent is released instantaneously and/or on initial chewing. For example, the release rate of anti-microbial agents after 10 minutes of chewing can be as low as less than 10%. […] Thus, the factor Q is 11.1 (100%/9%). The targeted (P) value selected for the chewing gum composition would therefore have to be about 11.1 times greater than the (P) value for the corresponding pressed mint composition.

Row | MIC [1] | Q factor (100/percentage released) [3] | Release Rate (%) After 10 Minutes of Chewing [3] | Release Rate (%) After 10 Minutes of Chewing ([3]; listed as eucalyptol) | SMILES | Germ Kill Rating (R) [2]
1 | 500 µg/mL (≈ 3200 µM) | 11.1 | 9% |  | CC1CCC(C(C)C)C(O)C1 (centres unmarked) [Menthol] | 24
2 |  |  | 10.4% |  | CC(C)[C@@H]1CC[C@@H](C)CC1=O [Menthone] | 
3 |  |  | 8.9% |  | COC(=O)c1ccccc1O [Methyl Salicylate] | 
4 |  | 5.025 | 19.9% | 19.9% | CC12CCC(CC1)C(C)(C)O2 [Eucalyptol] | 
5 | 87 µg/mL (≈ 579 µM) |  |  |  | Cc1ccc(C(C)C)c(O)c1 [Thymol] | 1.1

From patent publication US20060127324A1, “Chewable oral compositions containing an anti-microbial agent and methods of formulating the compositions to have acceptable germ kill properties and taste” (Cadbury Adams USA LLC, priority 2004, published 2006)
